Test results as given in patent publication US20090298820A1, “3-SUBSTITUTED-1H-PYRROLO[2,3-B]PYRIDINE AND 3-SUBSTITUTED-1H-PYRROLO[3,2-B]PYRIDINE COMPOUNDS, THEIR USE AS MTOR KINASE AND PI3 KINASE INHIBITORS, AND THEIR SYNTHESES” (Wyeth, priority 2008, published 2009).
Read-outs that look alike come from different tables or passages of the source.

How the values were obtained:
Format in all cases: biochemical
PI3Kα = PI3Kα (Homo sapiens, UniProt P42336); assay: PI3K-alpha fluorescence polarization assay; conditions: read-out: PI3Kα Median IC50
mTOR = mTOR (Homo sapiens, UniProt P42345); assay: mTOR enzyme assay (DELFIA format, His6-S6K substrate)
PI3Kγ = PI3Kγ (Homo sapiens, UniProt P48736); assay: PI3K-gamma fluorescence polarization assay; conditions: read-out: PI3Kγ Median IC50
[1] = read-out: mTOR Kinase Median IC50

Chain of PI3Kγ (P48736 whole entry, species assumed): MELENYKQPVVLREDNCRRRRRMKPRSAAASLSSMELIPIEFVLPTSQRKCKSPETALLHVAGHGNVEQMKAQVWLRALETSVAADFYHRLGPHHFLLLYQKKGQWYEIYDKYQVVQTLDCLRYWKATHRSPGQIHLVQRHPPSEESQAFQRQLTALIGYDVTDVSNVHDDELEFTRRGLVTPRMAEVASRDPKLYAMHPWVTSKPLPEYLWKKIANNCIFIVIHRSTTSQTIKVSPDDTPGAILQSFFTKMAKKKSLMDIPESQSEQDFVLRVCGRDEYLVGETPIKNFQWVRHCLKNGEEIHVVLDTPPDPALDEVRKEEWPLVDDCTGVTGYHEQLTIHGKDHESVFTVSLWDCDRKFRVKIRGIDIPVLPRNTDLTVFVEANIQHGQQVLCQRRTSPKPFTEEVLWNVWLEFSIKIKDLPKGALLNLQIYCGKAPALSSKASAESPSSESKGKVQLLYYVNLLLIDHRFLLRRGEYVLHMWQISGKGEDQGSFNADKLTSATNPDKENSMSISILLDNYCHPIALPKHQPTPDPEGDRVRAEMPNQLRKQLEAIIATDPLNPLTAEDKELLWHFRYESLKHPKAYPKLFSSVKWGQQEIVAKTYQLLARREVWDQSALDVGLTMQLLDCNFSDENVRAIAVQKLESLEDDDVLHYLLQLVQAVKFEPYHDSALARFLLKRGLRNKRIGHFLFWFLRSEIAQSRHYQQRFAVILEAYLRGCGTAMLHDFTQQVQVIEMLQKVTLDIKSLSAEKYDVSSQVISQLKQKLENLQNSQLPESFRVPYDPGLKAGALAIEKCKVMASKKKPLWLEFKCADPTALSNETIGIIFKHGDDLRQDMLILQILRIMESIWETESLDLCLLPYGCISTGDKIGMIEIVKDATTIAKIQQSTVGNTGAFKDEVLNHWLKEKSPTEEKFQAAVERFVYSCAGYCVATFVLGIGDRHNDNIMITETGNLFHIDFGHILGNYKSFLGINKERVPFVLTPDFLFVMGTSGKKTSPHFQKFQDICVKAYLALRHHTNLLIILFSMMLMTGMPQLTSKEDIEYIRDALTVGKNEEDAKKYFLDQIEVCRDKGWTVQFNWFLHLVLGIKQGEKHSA
Chain of PI3Kα (P42336 whole entry, species assumed): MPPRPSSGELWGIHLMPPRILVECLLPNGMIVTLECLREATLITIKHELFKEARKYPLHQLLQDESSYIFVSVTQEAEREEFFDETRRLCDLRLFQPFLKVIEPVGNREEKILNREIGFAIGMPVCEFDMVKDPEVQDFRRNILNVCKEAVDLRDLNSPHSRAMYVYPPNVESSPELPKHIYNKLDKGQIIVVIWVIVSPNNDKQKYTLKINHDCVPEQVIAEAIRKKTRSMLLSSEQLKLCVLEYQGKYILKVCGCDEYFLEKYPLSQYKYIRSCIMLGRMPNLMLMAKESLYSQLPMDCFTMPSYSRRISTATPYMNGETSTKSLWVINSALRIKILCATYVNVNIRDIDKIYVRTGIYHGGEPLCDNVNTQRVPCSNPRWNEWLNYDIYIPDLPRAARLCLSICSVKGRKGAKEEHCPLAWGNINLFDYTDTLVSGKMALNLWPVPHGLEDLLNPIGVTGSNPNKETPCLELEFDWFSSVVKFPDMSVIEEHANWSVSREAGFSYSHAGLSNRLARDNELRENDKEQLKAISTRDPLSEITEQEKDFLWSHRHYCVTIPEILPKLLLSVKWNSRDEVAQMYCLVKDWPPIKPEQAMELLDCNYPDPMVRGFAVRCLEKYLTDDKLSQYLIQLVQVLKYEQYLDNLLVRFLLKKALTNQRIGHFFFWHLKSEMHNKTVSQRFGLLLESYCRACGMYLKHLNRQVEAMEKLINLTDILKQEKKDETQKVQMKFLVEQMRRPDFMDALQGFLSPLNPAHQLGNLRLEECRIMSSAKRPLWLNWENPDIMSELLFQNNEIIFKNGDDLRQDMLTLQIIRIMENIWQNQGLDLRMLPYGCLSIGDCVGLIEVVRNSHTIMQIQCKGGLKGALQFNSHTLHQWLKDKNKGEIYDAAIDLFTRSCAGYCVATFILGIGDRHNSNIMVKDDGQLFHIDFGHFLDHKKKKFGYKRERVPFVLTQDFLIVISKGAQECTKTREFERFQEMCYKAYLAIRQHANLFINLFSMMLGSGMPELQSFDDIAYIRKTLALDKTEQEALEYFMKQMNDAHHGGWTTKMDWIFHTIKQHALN
Chain of PI3Kα (P27986 whole entry partner, species assumed): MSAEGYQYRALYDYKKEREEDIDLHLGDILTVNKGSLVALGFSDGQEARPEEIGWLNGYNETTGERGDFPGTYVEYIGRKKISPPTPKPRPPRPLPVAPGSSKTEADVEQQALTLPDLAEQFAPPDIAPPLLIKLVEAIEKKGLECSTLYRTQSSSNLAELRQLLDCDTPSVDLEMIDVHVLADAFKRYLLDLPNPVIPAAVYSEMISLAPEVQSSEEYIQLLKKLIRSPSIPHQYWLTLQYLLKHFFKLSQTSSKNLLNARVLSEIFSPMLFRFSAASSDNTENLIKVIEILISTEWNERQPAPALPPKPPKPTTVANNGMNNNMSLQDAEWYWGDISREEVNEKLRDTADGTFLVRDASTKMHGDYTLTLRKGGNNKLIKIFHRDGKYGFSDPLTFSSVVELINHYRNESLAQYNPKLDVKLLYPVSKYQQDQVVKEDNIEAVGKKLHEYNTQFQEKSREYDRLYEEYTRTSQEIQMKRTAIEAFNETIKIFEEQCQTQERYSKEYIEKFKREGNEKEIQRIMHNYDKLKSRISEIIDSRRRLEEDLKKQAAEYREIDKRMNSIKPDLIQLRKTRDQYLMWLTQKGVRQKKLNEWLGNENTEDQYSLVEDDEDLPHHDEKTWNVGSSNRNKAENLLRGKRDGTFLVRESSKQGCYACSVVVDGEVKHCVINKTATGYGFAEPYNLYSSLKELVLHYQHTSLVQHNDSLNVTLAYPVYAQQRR

SMILES: Cn1cc(/C=C2\Oc3cccc(O)c3C2=O)c2c(-c3ccc(S(C)(=O)=O)cc3)ccnc21 [Compound 73, (2Z)-4-hydroxy-2-({1-methyl-4-[4-(methylsulfonyl)phenyl]-1H-pyrrolo[2,3-b]pyridin-3-yl}methylene)-1-benzofuran-3(2H)-one]
- IC50 (PI3Kα): 23 nM
- IC50 (mTOR; [1]): 3.1 nM
- IC50 (PI3Kγ): 75 nM

SMILES: CNS(=O)(=O)c1ccc(-c2ccnc3c2c(/C=C2\Oc4cc(O)cc(O)c4C2=O)cn3C)cc1 [Compound 77, 4-{3-[(Z)-(4,6-dihydroxy-3-oxo-1-benzofuran-2(3H)-ylidene)methyl]-1-methyl-1H-pyrrolo[2,3-b]pyridin-4-yl}-N-methylbenzenesulfonamide]
- IC50 (PI3Kα): 2 nM
- IC50 (mTOR; [1]): 0.2 nM
- IC50 (PI3Kγ): 22 nM

SMILES: Cn1cc(/C=C2\Oc3cc(O)cc(O)c3C2=O)c2c(C3=CCNCC3)ccnc21 [Compound 78, (2Z)-4,6-dihydroxy-2-{[1-methyl-4-(1,2,3,6-tetrahydropyridin-4-yl)-1H-pyrrolo[2,3-b]pyridin-3-yl]methylene}-1-benzofuran-3(2H)-one]
- IC50 (PI3Kα): 31 nM
- IC50 (mTOR; [1]): 5 nM
- IC50 (PI3Kγ): 315 nM

SMILES: Cn1cc(/C=C2\Oc3cc(O)cc(O)c3C2=O)c2c(-c3cccc(C(=O)N4CCCC4)c3)ccnc21 [Compound 79, (2Z)-4,6-dihydroxy-2-({1-methyl-4-[3-(pyrrolidin-1-ylcarbonyl)phenyl]-1H-pyrrolo[2,3-b]pyridin-3-yl}methylene)-1-benzofuran-3(2H)-one]
- IC50 (PI3Kα): 8 nM
- IC50 (mTOR; [1]): 1.4 nM
- IC50 (PI3Kγ): 49 nM

SMILES: Cn1cc(/C=C2\Oc3cc(O)cc(O)c3C2=O)c2c(-c3cccc(S(=O)(=O)N4CCCCC4)c3)ccnc21 [Compound 80, (2Z)-4,6-dihydroxy-2-({1-methyl-4-[3-(piperidin-1-ylsulfonyl)phenyl]-1H-pyrrolo[2,3-b]pyridin-3-yl}methylene)-1-benzofuran-3(2H)-one]
- IC50 (PI3Kα): 23 nM
- IC50 (mTOR; [1]): 1.8 nM
- IC50 (PI3Kγ): 69 nM

SMILES: COc1ccc(-c2ccnc3c2c(/C=C2\Oc4cccc(O)c4C2=O)cn3C)cc1S(=O)(=O)N1CCOCC1 [Compound 81, (2Z)-4-hydroxy-2-({4-[4-methoxy-3-(morpholin-4-ylsulfonyl)phenyl]-1-methyl-1H-pyrrolo[2,3-b]pyridin-3-yl}methylene)-1-benzofuran-3(2H)-one]
- IC50 (PI3Kα): 28 nM
- IC50 (mTOR; [1]): 1.6 nM
- IC50 (PI3Kγ): 79 nM

SMILES: Cn1cc(/C=C2\Oc3cccc(O)c3C2=O)c2c(-c3ccc(S(=O)(=O)NC4CC4)cc3)ccnc21 [Compound 82, N-cyclopropyl-4-{3-[(Z)-(4-hydroxy-3-oxo-1-benzofuran-2(3H)-ylidene)methyl]-1-methyl-1H-pyrrolo[2,3-b]pyridin-4-yl}benzenesulfonamide]
- IC50 (PI3Kα): 20 nM
- IC50 (mTOR; [1]): 1.4 nM
- IC50 (PI3Kγ): 70 nM

SMILES: Cn1cc(/C=C2\Oc3cccc(O)c3C2=O)c2c(-c3ccc(C(=O)Nc4ccc(F)cc4)cc3)ccnc21 [Compound 83, N-(4-fluorophenyl)-4-{3-[(Z)-(4-hydroxy-3-oxo-1-benzofuran-2(3H)-ylidene)methyl]-1-methyl-1H-pyrrolo[2,3-b]pyridin-4-yl}benzamide]
- IC50 (PI3Kα): 124 nM
- IC50 (mTOR; [1]): 9.5 nM
- IC50 (PI3Kγ): 951 nM

SMILES: Cn1cc(/C=C2\Oc3cccc(O)c3C2=O)c2c(-c3ccc(Oc4ccccc4)cc3)ccnc21 [Compound 84, (2Z)-4-hydroxy-2-{[1-methyl-4-(4-phenoxyphenyl)-1H-pyrrolo[2,3-b]pyridin-3-yl]methylene}-1-benzofuran-3(2H)-one]
- IC50 (PI3Kα): 4880 nM
- IC50 (mTOR; [1]): 165 nM
- IC50 (PI3Kγ): > 10000 nM

SMILES: Cn1cc(/C=C2\Oc3cccc(O)c3C2=O)c2c(-c3cc4ccccc4o3)ccnc21 [Compound 85, (2Z)-2-{[4-(1-benzofuran-2-yl)-1-methyl-1H-pyrrolo[2,3-b]pyridin-3-yl]methylene}-4-hydroxy-1-benzofuran-3(2H)-one]
- IC50 (PI3Kα): 273 nM
- IC50 (mTOR; [1]): 26.5 nM
- IC50 (PI3Kγ): 157 nM

SMILES: COc1ccc(-c2ccnc3c2c(/C=C2\Oc4cccc(O)c4C2=O)cn3C)cc1S(=O)(=O)N1CCCC1 [Compound 86, (2Z)-4-hydroxy-2-({4-[4-methoxy-3-(pyrrolidin-1-ylsulfonyl)phenyl]-1-methyl-1H-pyrrolo[2,3-b]pyridin-3-yl}methylene)-1-benzofuran-3(2H)-one]
- IC50 (PI3Kα): 77 nM
- IC50 (mTOR; [1]): 3.4 nM
- IC50 (PI3Kγ): 600 nM

SMILES: Cn1cc(/C=C2\Oc3cc(O)cc(O)c3C2=O)c2c(-c3ccc(Oc4ccccc4)cc3)ccnc21 [Compound 87, (2Z)-4,6-dihydroxy-2-{[1-methyl-4-(4-phenoxyphenyl)-1H-pyrrolo[2,3-b]pyridin-3-yl]methylene}-1-benzofuran-3(2H)-one]
- IC50 (PI3Kα): 161 nM
- IC50 (mTOR; [1]): 3.6 nM
- IC50 (PI3Kγ): 66 nM

SMILES: COc1ccc(-c2ccnc3c2c(/C=C2\Oc4cc(O)cc(O)c4C2=O)cn3C)cc1S(=O)(=O)N1CCOCC1 [Compound 88, (2Z)-4,6-dihydroxy-2-({4-[4-methoxy-3-(morpholin-4-ylsulfonyl)phenyl]-1-methyl-1H-pyrrolo[2,3-b]pyridin-3-yl}methylene)-1-benzofuran-3(2H)-one]
- IC50 (PI3Kα): 8 nM
- IC50 (mTOR; [1]): 0.2 nM
- IC50 (PI3Kγ): 27 nM

SMILES: COc1ccc(-c2ccnc3c2c(/C=C2\Oc4cc(O)cc(O)c4C2=O)cn3C)cc1S(=O)(=O)N1CCCC1 [Compound 89, (2Z)-4,6-dihydroxy-2-({4-[4-methoxy-3-(pyrrolidin-1-ylsulfonyl)phenyl]-1-methyl-1H-pyrrolo[2,3-b]pyridin-3-yl}methylene)-1-benzofuran-3(2H)-one]
- IC50 (PI3Kα): 8 nM
- IC50 (mTOR; [1]): 0.5 nM
- IC50 (PI3Kγ): 50 nM

SMILES: Cn1cc(/C=C2\Oc3cccc(O)c3C2=O)c2c(-c3ccc(S(=O)(=O)NCc4ccccc4)cc3)ccnc21 [Compound 90, N-benzyl-4-{3-[(Z)-(4-hydroxy-3-oxo-1-benzofuran-2(3H)-ylidene)methyl]-1-methyl-1H-pyrrolo[2,3-b]pyridin-4-yl}benzenesulfonamide]
- IC50 (PI3Kα): 10 nM
- IC50 (mTOR; [1]): 24 nM
- IC50 (PI3Kγ): 16 nM

SMILES: Cn1cc(/C=C2\Oc3cccc(O)c3C2=O)c2c(-c3ccc(C(=O)N4CCCC4)cc3)ccnc21 [Compound 91, (2Z)-4-hydroxy-2-({1-methyl-4-[4-(pyrrolidin-1-ylcarbonyl)phenyl]-1H-pyrrolo[2,3-b]pyridin-3-yl}methylene)-1-benzofuran-3(2H)-one]
- IC50 (PI3Kα): 36 nM
- IC50 (mTOR; [1]): 0.7 nM
- IC50 (PI3Kγ): 74 nM

SMILES: Cn1cc(/C=C2\Oc3cc(O)cc(O)c3C2=O)c2c(-c3ccc(C(=O)N4CCCC4)cc3)ccnc21 [Compound 92, (2Z)-4,6-dihydroxy-2-({1-methyl-4-[4-(pyrrolidin-1-ylcarbonyl)phenyl]-1H-pyrrolo[2,3-b]pyridin-3-yl}methylene)-1-benzofuran-3(2H)-one]
- IC50 (PI3Kα): 9 nM
- IC50 (mTOR; [1]): 0.2 nM
- IC50 (PI3Kγ): 54 nM

SMILES: Cn1cc(/C=C2\Oc3cccc(O)c3C2=O)c2c(-c3cccc(C(=O)Nc4ccc(F)cc4)c3)ccnc21 [Compound 96, N-(4-fluorophenyl)-3-{3-[(Z)-(4-hydroxy-3-oxo-1-benzofuran-2(3H)-ylidene)methyl]-1-methyl-1H-pyrrolo[2,3-b]pyridin-4-yl}benzamide]
- IC50 (PI3Kα): 301 nM
- IC50 (mTOR; [1]): 13 nM
- IC50 (PI3Kγ): 2700 nM

SMILES: Cn1cc(/C=C2\Oc3cc(O)cc(O)c3C2=O)c2c(-c3cccc(C(=O)Nc4ccc(F)cc4)c3)ccnc21 [Compound 97, 3-{3-[(Z)-(4,6-dihydroxy-3-oxo-1-benzofuran-2(3H)-ylidene)methyl]-1-methyl-1H-pyrrolo[2,3-b]pyridin-4-yl}-N-(4-fluorophenyl)benzamide]
- IC50 (PI3Kα): 13 nM
- IC50 (mTOR; [1]): 0.7 nM
- IC50 (PI3Kγ): 321 nM

SMILES: Cn1cc(/C=C2\Oc3cc(O)cc(O)c3C2=O)c2c(-c3ccc(F)c(C(=O)Nc4ccccc4)c3)ccnc21 [Compound 98, 5-{3-[(Z)-(4,6-dihydroxy-3-oxo-1-benzofuran-2(3H)-ylidene)methyl]-1-methyl-1H-pyrrolo[2,3-b]pyridin-4-yl}-2-fluoro-N-phenylbenzamide]
- IC50 (PI3Kα): 11 nM
- IC50 (mTOR; [1]): 0.2 nM
- IC50 (PI3Kγ): 100 nM

SMILES: CCn1cc(/C=C2\Oc3cccc(O)c3C2=O)c2c(-c3ccccc3)ccnc21 [Compound 116, (2Z)-2-[(1-ethyl-4-phenyl-1H-pyrrolo[2,3-b]pyridin-3-yl)methylene]-4-hydroxy-1-benzofuran-3(2H)-one]
- IC50 (PI3Kα): 8490 nM
- IC50 (mTOR; [1]): 23 nM
- IC50 (PI3Kγ): > 10000 nM

SMILES: CNC(=O)Nc1ccc2c(c1)C(=O)/C(=C/c1c[nH]c3ncc(OC)cc13)O2 [Compound 119, 1-{(2Z)-2-[(5-methoxy-1H-pyrrolo[2,3-b]pyridin-3-yl)methylene]-3-oxo-2,3-dihydro-1-benzofuran-5-yl}-3-methylurea]
- IC50 (PI3Kα): 46 nM
- IC50 (mTOR; [1]): 72 nM
- IC50 (PI3Kγ): 183 nM

SMILES: CNC(=O)Nc1ccc2c(c1)C(=O)/C(=C/c1cn(CCN3CCN(C)CC3)c3ncc(OC)cc13)O2 [Compound 120, 1-[(2Z)-2-({5-methoxy-1-[2-(4-methylpiperazin-1-yl)ethyl]-1H-pyrrolo[2,3-b]pyridin-3-yl}methylene)-3-oxo-2,3-dihydro-1-benzofuran-5-yl]-3-methylurea]
- IC50 (PI3Kα): 35 nM
- IC50 (mTOR): 285 nM
- IC50 (PI3Kγ): 2380 nM

SMILES: COc1ccc(-c2ccnc3c2c(/C=C2\Oc4cccc(O)c4C2=O)cn3C)cc1S(=O)(=O)N1CCCCC1 [Compound 123, (2Z)-4-hydroxy-2-({4-[4-methoxy-3-(piperidin-1-ylsulfonyl)phenyl]-1-methyl-1H-pyrrolo[2,3-b]pyridin-3-yl}methylene)-1-benzofuran-3(2H)-one]
- IC50 (PI3Kα): 43 nM
- IC50 (mTOR; [1]): 16.5 nM
- IC50 (PI3Kγ): 156 nM

SMILES: CN1CCN(C(=O)c2ccc(-c3ccnc4c3c(/C=C3\Oc5cccc(O)c5C3=O)cn4C)cc2)CC1 [Compound 124, (2Z)-4-hydroxy-2-[(1-methyl-4-{4-[(4-methylpiperazin-1-yl)carbonyl]phenyl}-1H-pyrrolo[2,3-b]pyridin-3-yl)methylene]-1-benzofuran-3(2H)-one]
- IC50 (PI3Kα): 70 nM
- IC50 (mTOR; [1]): 1 nM
- IC50 (PI3Kγ): 184 nM
